Values of other authors as cited in patent US12636262B2, “Process for the preparation of topical formulation” (Neuheit Pharma Technologies Pvt. Ltd, priority 2019, dated 2026).

Settings: reported

## CC(=O)Oc1cccc2c1C(=O)c1c(OC(C)=O)cc(C(=O)O)cc1C2=O [Diacerein, 4,5-diacetyloxy-9,10-dioxo-anthracene-2-carboxylic acid]
  oral bioavailability: 40-60%
